Laboratory results as given in patent US10537558B2 (Bantam Pharmaceutical, LLC, priority 2015, dated 2020).

tested on: BJAB cells; assay: BJAB cell proliferation (Cell Titer Glo); type: cell-based; settings: Homo sapiens, read-out: EC50
Outline: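 EC50 values come from non-linear regression of luminescence (Cell Titer Glo), expressed relative to untreated wells. BJAB cells were incubated roughly 72 h at 37 °C with serial compound dilutions carrying 0.1% final DMSO.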

First: Cc1nn(-c2nc(-c3ccc(Cl)c(Cl)c3)c(SC(C)C)s2)c(C(=O)O)c1-c1cc(O)cc(F)c1 [Compound 152, 1-(4-(3,4-dichlorophenyl)-5-(isopropylthio)thiazol-2-yl)-4-(3-fluoro-5-hydroxyphenyl)-3-methyl-1H-pyrazole-5-carboxylic Acid]
Second: Cc1nn(-c2nc(-c3ccc(Cl)c(Cl)c3)c(SC(C)C)s2)c(C(=O)O)c1-c1cc(O)cc(Cl)c1 [Compound 154, 4-(3-chloro-5-hydroxyphenyl)-1-(4-(3,4-dichlorophenyl)-5-(isopropylthio)thiazol-2-yl)-3-methyl-1H-pyrazole-5-carboxylic Acid]
The EC50 of the first is lower: 5 to 10 µM for the first, 10 to 25 µM for the second.

First: Cc1cc(N)cc(-c2c(C)nn(-c3nc(-c4ccc(Cl)c(Cl)c4)c(SC(C)C)s3)c2C(=O)O)c1 [Compound 153, 4-(3-amino-5-methylphenyl)-1-(4-(3,4-dichlorophenyl)-5-(isopropylthio)thiazol-2-yl)-3-methyl-1H-pyrazole-5-carboxylic acid]
Second: Cc1cc(-c2c(C)nn(-c3nc(-c4cc(Cl)ccc4Cl)c(SC(C)C)s3)c2C(=O)O)cc(C)n1 [Compound 161, 1-(4-(2,5-dichlorophenyl)-5-(isopropylthio)thiazol-2-yl)-4-(2,6-dimethylpyridin-4-yl)-3-methyl-1H-pyrazole-5-carboxylic acid]
The EC50 of the first is higher: greater than 25 µM for the first, 5 to 10 µM for the second. The second is the more potent here.

First: Cc1nn(-c2nc(-c3ccc(Cl)c(Cl)c3)c(SC(C)C)s2)c(C(=O)O)c1-c1cccc2ccn(C)c12 [Compound 155, 1-(4-(3,4-dichlorophenyl)-5-(isopropylthio)thiazol-2-yl)-3-methyl-4-(1-methyl-1H-indol-7-yl)-1H-pyrazole-5-carboxylic Acid]
Second: Cc1cc(-c2c(C)nn(-c3nc(-c4ccc(Cl)cc4Cl)c(SC(C)C)s3)c2C(=O)O)cc(C)n1 [Compound 160, 1-(4-(2,4-dichlorophenyl)-5-(isopropylthio)thiazol-2-yl)-4-(2,6-dimethylpyridin-4-yl)-3-methyl-1H-pyrazole-5-carboxylic Acid]
The EC50 of the first is higher: 5 to 10 µM for the first, less than 1 µM for the second.

First: CC(C)Sc1sc(-n2cccn2)nc1-c1ccc(Cl)c(Cl)c1 [Compound 156, 4-(3,4-dichlorophenyl)-5-(isopropylthio)-2-(1H-pyrazol-1-yl)thiazole]
Second: Cc1cc(-c2c(C)nn(-c3nc(-c4cccc(Cl)c4)c(SC(C)C)s3)c2C(=O)O)cc(C)n1 [Compound 158, 1-(4-(3-chlorophenyl)-5-(isopropylthio)thiazol-2-yl)-4-(2,6-dimethylpyridin-4-yl)-3-methyl-1H-pyrazole-5-carboxylic Acid]
The EC50 of the first is higher: greater than 25 µM for the first, 5 to 10 µM for the second.

First: Cc1cc(-c2c(C)nn(-c3nc(-c4ccccc4Cl)c(SC(C)C)s3)c2C(=O)O)cc(C)n1 [Compound 157, 1-(4-(2-chlorophenyl)-5-(isopropylthio)thiazol-2-yl)-4-(2,6-dimethylpyridin-4-yl)-3-methyl-1H-pyrazole-5-carboxylic Acid]
Second: Cc1cc(-c2c(C)nn(-c3nc(-c4ccc(Cl)cc4)c(SC(C)C)s3)c2C(=O)O)cc(C)n1 [Compound 159, 1-(4-(4-chlorophenyl)-5-(isopropylthio)thiazol-2-yl)-4-(2,6-dimethylpyridin-4-yl)-3-methyl-1H-pyrazole-5-carboxylic Acid]
The EC50 of the first is higher: 1 to 5 µM for the first, less than 1 µM for the second.

First: Cc1cc(-c2c(C)nn(-c3nc(C#Cc4ccccc4)c(SC(C)C)s3)c2C(=O)O)cc(C)n1 [Compound 162, 4-(2,6-dimethylpyridin-4-yl)-1-(5-(isopropylthio)-4-(phenylethynyl)thiazol-2-yl)-3-methyl-1H-pyrazole-5-carboxylic acid]
Second: Cc1cc(-c2c(C)nn(-c3nc(Cc4ccccc4)c(SC(C)C)s3)c2C(=O)O)cc(C)n1 [Compound 163, 1-(4-benzyl-5-(isopropylthio)thiazol-2-yl)-4-(2,6-dimethylpyridin-4-yl)-3-methyl-1H-pyrazole-5-carboxylic acid]
The EC50 of the first is lower: 5 to 10 µM for the first, 10 to 25 µM for the second.
